According to US20260055108A1, “TRIAZINE COMPOUNDS AND USES THEREOF” (HUTCHMED LIMITED, priority 2022, published 2026):
pIC50: −log10 of the molar value. Where two headings read alike, the source gives them in different places.

Legend:
[1] = biological target: Recombinant human Menin protein (2-610) / MLL polypeptide binding (Homo sapiens (Human), UniProt O00255); test: Menin and MLL protein binding at a molecular level (fluorescence polarization method); details: inhibition of Menin / MLL polypeptide binding
Chain of Recombinant human Menin protein (2-610) / MLL polypeptide binding (O00255 2-610): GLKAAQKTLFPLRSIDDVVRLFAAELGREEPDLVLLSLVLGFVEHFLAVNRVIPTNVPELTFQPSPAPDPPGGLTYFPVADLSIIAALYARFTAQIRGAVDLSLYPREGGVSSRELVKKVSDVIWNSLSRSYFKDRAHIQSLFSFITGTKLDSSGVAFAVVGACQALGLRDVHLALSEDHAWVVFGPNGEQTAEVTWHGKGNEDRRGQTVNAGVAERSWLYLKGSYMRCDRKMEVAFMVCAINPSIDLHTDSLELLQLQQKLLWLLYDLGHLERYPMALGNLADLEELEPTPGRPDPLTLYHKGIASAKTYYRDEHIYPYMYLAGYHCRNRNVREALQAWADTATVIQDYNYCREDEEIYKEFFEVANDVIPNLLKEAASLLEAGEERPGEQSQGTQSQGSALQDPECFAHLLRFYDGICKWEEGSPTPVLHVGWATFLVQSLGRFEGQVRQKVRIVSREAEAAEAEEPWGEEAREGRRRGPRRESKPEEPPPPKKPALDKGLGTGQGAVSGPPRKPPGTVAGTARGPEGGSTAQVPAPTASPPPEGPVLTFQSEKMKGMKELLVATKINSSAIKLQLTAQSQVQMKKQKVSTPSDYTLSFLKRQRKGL
Description: Example 3: Determination of the Activity of the Compounds of the Present Invention on Menin and MLL Protein Binding at a Molecular Level (Fluorescence Polarization Method)
1. Reagents, Materials and Instruments:
• Recombinant human Menin protein (2-610): ChemPartner, CP2021020801; • MLL polypeptide (6-FAM-Ahx-SG-40): GL Biochem, 865700; • Trizma® hydrochloride buffer solution (Tris): Sigma, T2194-1 L; • NaCl: Invitrogen, AM9760G; • TCEP: Sigma, 646547; • DMSO: Sigma, D4540; • 384-well plate: Corning, 4514; • Envision: PerkinElmer.
2. Preparation of Reaction Solutions
• 1) Buffer solution: 20 mL of Tris and 4 mL of NaCl were added respectively to 376 mL of ddH2O, with pH adjusted to 7.5, and TCEP was added before testing with a dilution ratio of 1:500. • 2) 5× test compounds: the test compound was subjected to gradient dilution with the buffer solution to 5-fold the reaction concentration, so that the final concentrations of the compound were 1.000, 0.333, 0.111, 0.037, 0.012, 0.004, 0.001 and 0.0005 μM, respectively. • 3) 2.5× Menin protein reaction solution: the Menin protein was diluted to 5 nM with the buffer solution. • 4) 2.5×MLL polypeptide reaction solution: the MLL polypeptide was diluted to 5 nM with the buffer solution.
1) Binding Reaction (20 μL System)
4 μL of 5× test compound was added to each reaction well of the 384-well plate, and the corresponding volume of 10% DMSO was added to the control wells. Except the control wells, 8 μL of Menin protein reaction solution was added to each well. The reaction solution was incubated at room temperature for 30 minutes, and then 8 μL of MLL polypeptide reaction solution was added to each well. The final concentrations of DMSO in the test compound wells and control wells were all 2%. The 384-well plate was sealed and incubated at room temperature for 30 minutes in the dark.
Three control groups were set up: • a blank control group only containing a buffer solution; • a negative control group only containing MLL polypeptide reaction solution; and • a positive control group containing Menin protein reaction solution and MLL polypeptide reaction solution.
The vertical polarization S value and the horizontal polarization P value (excitation wavelength was 480 nm, and emission wavelength was 535 nm) were measured with Envision.
Corrected S is the S value of the negative control group—the S value of the blank control group
Corrected P is the P value of the negative control group—the P value of the blank control group
(§1) • calculated by using software XL-Fit™ (version 5.3) supplied by ID Business Solutions (Guildford, UK), which is an additional software to Microsoft Excel.

[2] = test system: MV-4-11 cells (human acute myelogenous leukemia cell line carrying MLL-AF4 mutation); test: Cell proliferation assay, MV-4-11 (CellTiter-Glo); assay type: cell-based; details: Homo sapiens, MV4-11, 72 h
Procedure: Example 4 Cell Proliferation Assay
MV-4-11 (ATCC, CRL-9591), a human acute myelogenous leukemia cell line carrying MLL-AF4 mutation. Cells were cultured in an IMDM medium containing 10% heat-inactivated fetal bovine serum (HIFBS) and supplemented with 50 μM β-mercaptoethanol.
2. Reagents, Materials and Instruments:
• IMDM culture solution: GIBCO, 12440-053; • HIFBS: GIBCO, 10100-147; • β-mercaptoethanol: Sigma, M3148; • CellTiter-Glo® 2.0 assay kit (CTG): Promega, G9243; • DMSO: Sigma, D4540; • 96-well cell culture plate: Corning, 3903; • Envision: PerkinElmer.
MV-4-11 cells were resuspended in a medium, added to a 96-well plate at a density of 3000 cells/well with a volume of 100 μL/well, and cultured in a cell incubator at 5% CO2 and 37° C. for 4 hours. The test compound subjected to gradient dilution with the medium was added to a cell culture plate, and the final concentrations of the compound were 1.100, 0.367, 0.122, 0.041, 0.014, 0.005, 0.002 and 0.001 μM, respectively. The corresponding volume of DMSO diluent was added to a blank control well, and the final concentrations of DMSO in the experimental group and control group were both 0.1%. The cell plate was placed in a cell incubator at 5% CO2 and 37° C. and cultured for 3 days.
On day 0 and day 3 of the treatment, 50 μL/well CTG reagent was added to the cell plate and shaken at room temperature in the dark for 10 min, and then the chemiluminescence value of each well was measured with Envision.
[formula] • wherein: • luminescence valuetest sample: the chemiluminescence value of a cell well treated with the test compound for 3 days. • luminescence valueday 0: the chemiluminescence value of a cell well at day 0. • luminescence valuecell well: the chemiluminescence value of a cell well not treated with the compound for 3 days.
as §1

[3] = MV-4-11 cells, 3 days treatment, CellTiter-Glo, read-out: GI50

## CCN(C(=O)c1cc(F)ccc1Oc1nncnc1N1CC2(CCN(Cc3ccc4c(cc(C#N)n4CCO)c3C)CC2)C1)C(C)C [Compound 154]
[1]
  pIC50: 9.10
[2]; [3]
  GI50: 2 nM

## CCN(C(=O)c1cc(F)ccc1Oc1nncnc1N1CC2(CCN(CC3CCN(c4ccc(Cl)nn4)CC3)CC2)C1)C(C)C [Compound 46]
[1]
  pIC50: 8.96
[2]; [3]
  GI50: 2 nM

## CCN(C(=O)c1cc(F)ccc1Oc1nncnc1N1CC2(CCN(CC3CCN(C(=O)C4(C(=O)N(C)C)CC4)CC3)CC2)C1)C(C)C [Compound 19, 2-((5-(7-((1-(1-(dimethylcarbamoyl)cyclopropane-1-carbonyl)piperidin-4-yl)methyl)-2,7-diazaspiro[3.5]nonan-2-yl)-1,2,4-triazin-6-yl)oxy)-N-ethyl-5-fluoro-N-isopropylbenzamide]
[2]
  GI50: 667 nM

## COc1cc(N2CCC(CN3CCC4(CC3)CN(c3ncnnc3Oc3ccc(F)c5c3cnn5C(C)C)C4)CC2)nnc1OC [Compound 104]
[1]
  pIC50: < 6.00
[2]; [3]
  GI50: > 3300 nM

## CCN(C(=O)c1cc(F)ccc1Oc1nncnc1N1CC2(CCN(CC3CCN(c4cc(OC)c(OC)cn4)CC3)CC2)C1)C(C)C [Compound 110]
[1]
  pIC50: 9.15
[2]; [3]
  GI50: 3 nM

## CCN(C(=O)c1cc(F)ccc1Oc1nncnc1N1CC2(CCN(CC3CCN(C(=O)C4CC(F)(F)C4)CC3)CC2)C1)C(C)C [Compound 6]
[1]
  pIC50: 8.17
[2]; [3]
  GI50: 13 nM

## CCN(C(=O)c1cc(F)ccc1Oc1nncnc1N1CCC(C2(NCc3ccc4[nH]c(C#N)cc4c3C)CC2)C1)C(C)C (stereo not drawn) [Compound 128]
[1]
  pIC50: 8.29
[2]; [3]
  GI50: 70 nM

## COc1cc(N2CCC(CN3CCC4(CC3)CN(c3ncnnc3Oc3ccc(F)cc3C(=O)N3CCC[C@H]3C)C4)CC2)nnc1OC [Compound 100]
[1]
  pIC50: 8.72
[2]; [3]
  GI50: 9 nM

## C#Cc1ccc(N2CCC(CN3CCC4(CC3)CN(c3ncnnc3Oc3ccc(F)cc3C(=O)N(CC)C(C)C)C4)CC2)nn1 [Compound 134]
[1]
  pIC50: 8.89
[2]; [3]
  GI50: 2 nM

## CCN(C(=O)c1cc(F)ccc1Oc1nncnc1N1CC(C2CCCN2Cc2ccc3[nH]c(C#N)cc3c2C)C1)C(C)C (stereo not drawn) [Compound 129]
[1]
  pIC50: 6.75
[2]; [3]
  GI50: 199 nM

## CCN(C(=O)c1cc(F)ccc1Oc1nncnc1N1CC2(CCN(CC3CCN(C(=O)NC4COC4)CC3)CC2)C1)C(C)C [Compound 33]
[1]
  pIC50: 8.54
[2]; [3]
  GI50: 18 nM

## CCN(C(=O)c1cc(F)ccc1Oc1nncnc1N1CC2(CCN(CC3CCN(C(=O)NCCOC)CC3)CC2)C1)C(C)C [Compound 35]
[1]
  pIC50: 7.97
[2]; [3]
  GI50: 35 nM

## CCN(C(=O)c1cc(F)ccc1Oc1nncnc1N1CC2(CCN(CC3CCN(c4cccc(C(C)(C)O)n4)CC3)CC2)C1)C(C)C [Compound 121]
[1]
  pIC50: 8.82
[2]; [3]
  GI50: 3 nM

## COc1cc(N2CCC(CN3CCC4(CC3)CN(c3ncnnc3Oc3ccc(F)cc3-c3ccnn3C)C4)CC2)nnc1OC [Compound 92]
[1]
  pIC50: 7.96
[2]; [3]
  GI50: 22 nM

## CCN(C(=O)c1cc(F)ccc1Oc1nncnc1N1CC2(CCN(Cc3ccc4[nH]c(C#N)c(C5=CCOCC5)c4c3C)CC2)C1)C(C)C [Compound 131, 2-((5-(7-((2-cyano-3-(3,6-dihydro-2H-pyran-4-yl)-4-methyl-1H-indol-5-yl)methyl)-2,7-diazaspiro[3.5]nonan-2-yl)-1,2,4-triazin-6-yl)oxy)-N-ethyl-5-fluoro-N-isopropylbenzamide]
[1]
  pIC50: 7.74
[2]; [3]
  GI50: 18 nM

## C=CC(=O)N1CC(C(=O)N2CCC(CN3CCC4(CC3)CN(c3ncnnc3Oc3ccc(F)cc3C(=O)N(CC)C(C)C)C4)CC2)C1 [Compound 18, 2-((5-(7-((1-(1-acryloylazetidine-3-carbonyl)piperidin-4-yl)methyl)-2,7-diazaspiro[3.5]nonan-2-yl)-1,2,4-triazin-6-yl)oxy)-N-ethyl-5-fluoro-N-isopropylbenzamide]
[1]
  pIC50: 7.84
[2]
  GI50: 12 nM

## CCN(C(=O)c1cc(F)ccc1Oc1nncnc1N1CC2(CCN(CC3CCN(c4ccn(C)n4)CC3)CC2)C1)C(C)C [Compound 79]
[1]
  pIC50: 7.24
[2]; [3]
  GI50: 78 nM

## COc1cc(N2CCC(CN3CCC4(CC3)CN(c3ncnnc3Oc3ccc(F)cc3C(=O)NC(C)C)C4)CC2)nnc1OC [Compound 177, 2-((5-(7-((1-(5,6-dimethoxypyridazin-3-yl)piperidin-4-yl)methyl)-2,7-diazaspiro[3.5]nonan-2-yl)-1,2,4-triazin-6-yl)oxy)-5-fluoro-N-isopropylbenzamide]
[1]
  pIC50: 7.33
[2]
  GI50: 92 nM

## CCN(C(=O)c1cc(F)ccc1Oc1nncnc1N1CC2(CCN(CC3CCN(C[C@@H](O)CC#N)CC3)CC2)C1)C(C)C [Compound 39]
[1]
  pIC50: 7.17
[2]; [3]
  GI50: 97 nM

## CC(C)n1nccc1-c1cc(F)ccc1Oc1nncnc1N1CC2(CCN(CC3CCN(c4ccc(C(F)(F)F)nn4)CC3)CC2)C1 [Compound 91]
[1]
  pIC50: 8.51
[2]; [3]
  GI50: 13 nM

## CCN(C(=O)c1cc(F)ccc1Oc1nncnc1N1CC2(CCN(CC3CCN(c4nnc(OC)cc4C)CC3)CC2)C1)C(C)C [Compound 98]
[1]
  pIC50: 8.15
[2]; [3]
  GI50: 12 nM

## Cc1nc(-c2cc(F)ccc2Oc2nncnc2N2CC3(CCN(CC4CCN(c5ccc(C#N)cn5)CC4)CC3)C2)n(C(C)C)n1 [Compound 118]
[1]
  pIC50: < 6.00
[2]; [3]
  GI50: > 3300 nM

## CCN(C(=O)c1cc(F)ccc1Oc1nncnc1N1CC2(CCN(CC3CCN(C(=O)C4(OC)CC4)CC3)CC2)C1)C(C)C [Compound 8]
[1]
  pIC50: 7.46
[2]; [3]
  GI50: 86 nM

## CCN(C(=O)c1cc(F)ccc1Oc1nncnc1N1CC2(CCN(CC3CCN(c4cccnn4)CC3)CC2)C1)C(C)C [Compound 166]
[1]
  pIC50: 8.59
[2]; [3]
  GI50: 7 nM

## CCN(C(=O)c1cc(F)ccc1Oc1nncnc1N1CC2(CCN(CC3CCN(c4ccc(OC)nn4)CC3)CC2)C1)C(C)C [Compound 88]
[1]
  pIC50: 8.96
[2]; [3]
  GI50: 4 nM

## CCN(C(=O)c1cc(F)ccc1Oc1nncnc1N1CC2(CCN(CC3CCN(C(=O)c4ccccc4F)CC3)CC2)C1)C(C)C [Compound 14]
[1]
  pIC50: 7.53
[2]; [3]
  GI50: 27 nM

## CCN(C(=O)c1cc(F)ccc1Oc1nncnc1N1CC2(CCN(CC3CCN(C(=O)C(C)O)CC3)CC2)C1)C(C)C (stereo not drawn) [Compound 10]
[1]
  pIC50: 7.38
[2]; [3]
  GI50: 187 nM

## CCN(C(=O)c1cc(F)ccc1Oc1nncnc1N1CC(C2(NCc3ccc4[nH]c(C#N)cc4c3C)CC2)C1)C(C)C [Compound 127]
[1]
  pIC50: 7.61
[2]; [3]
  GI50: 242 nM

## CCN(C(=O)c1cc(F)ccc1Oc1nncnc1N1CC2(CCN(CC3CCN(C4=NN5CCC(=O)N=C5C=C4)CC3)CC2)C1)C(C)C [Compound 83]
[1]
  pIC50: 6.65

## CCN(C(=O)c1cc(F)ccc1Oc1nncnc1N1CC2(CCN(Cc3ccc4[nH]c(C(=O)NC)cc4c3)CC2)C1)C(C)C [Compound 65]
[1]
  pIC50: 7.08

## CCN(C(=O)c1cc(F)ccc1Oc1nncnc1N1CC2(CCN(Cc3ccc4nccn4c3)CC2)C1)C(C)C [Compound 63]
[1]
  pIC50: < 6.00

## CCNC(=O)N1CCC(CN2CCC3(CC2)CN(c2ncnnc2Oc2ccc(F)cc2C(=O)N(CC)C(C)C)C3)CC1 [Compound 28]
[2]; [3]
  GI50: 9 nM

## COc1cc(N2CCC(CN3CCC4(CC3)CN(c3ncnnc3Oc3ccc(F)c5nn(C(C)C)cc35)C4)CC2)nnc1OC [Compound 105]
[1]
  pIC50: 6.32
